Measurements reported in ChEMBL document CHEMBL3885861, “Open TG-GATES”.

Species: Rattus norvegicus
Assay: Open TG-GATES - Regimen: Single
Type: toxicity, organism-based, Sprague-Dawley
Parameters: regimen Single, gender Male, age 6 weeks
Conditions: in vivo, po, 20 mg/kg, route gavage, dose level Low; for APTT / Bas / Eos / Fbg / Hb / Ht / Lym / MCH / MCHC / MCV / Mono / Neu / PT / Plat / RBC / Ret / WBC: tissue Blood; for KIDNEY_TOTAL: tissue Kidney; for LIVER: tissue Liver; for A/G / ALP / ALT / AST / BUN / CRE / Ca / Cl / DBIL / GLC / IP / K / LDH / Na / PL / RALB / TBIL / TC / TG / TP / gamma-GTP: tissue Plasma

CN(CCOc1ccc(CC2SC(=O)NC2=O)cc1)c1ccccn1.O=C(O)/C=C\C(=O)O (centres undefined) [ROSIGLITAZONE MALEATE]
TERMINAL_BW (3 h): 211.2 g | APTT (3 h): 16 s | Bas (3 h): 0% | Eos (3 h): 0.6% | Fbg (3 h): 208.6 mg/dL | Hb (3 h): 13.1 g/dL | Ht (3 h): 39.8% | Lym (3 h): 75.6% | MCH (3 h): 21.5 pg | MCHC (3 h): 32.9% | MCV (3 h): 65.3 fL | Mono (3 h): 9.2% | Neu (3 h): 14.2% | PT (3 h): 12.2 s | Plat (3 h): 111.6 x10_4/uL | RBC (3 h): 609 x10_4/ul | Ret (3 h): 8.8% | WBC (3 h): 102 x10_2/uL | KIDNEY_TOTAL (3 h): 0.8 g | LIVER (3 h): 10.3 g | A/G (3 h): 2.1 | ALP (3 h): 1342 IU/L | ALT (3 h): 38.8 IU/L | AST (3 h): 70.4 IU/L | BUN (3 h): 13.2 mg/dL | CRE (3 h): 0.4 mg/dL | Ca (3 h): 11.2 mg/dL | Cl (3 h): 103.2 meq/L | DBIL (3 h): 0.016 mg/dL | GLC (3 h): 179.2 mg/dL | IP (3 h): 8.4 mg/dL | K (3 h): 4.3 meq/L | LDH (3 h): 104 IU/L | Na (3 h): 139.6 meq/L | PL (3 h): 151.2 mg/dL | RALB (3 h): 3.6 g/dL | TBIL (3 h): 0.052 mg/dL | TC (3 h): 84.4 mg/dL | TG (3 h): 113.4 mg/dL | TP (3 h): 5.4 g/dL | gamma-GTP (3 h): 0.6 IU/L | TERMINAL_BW (6 h): 199.3 g | APTT (6 h): 16.4 s | Bas (6 h): 0% | Eos (6 h): 0.8% | Fbg (6 h): 208.8 mg/dL | Hb (6 h): 13.1 g/dL | Ht (6 h): 39.8% | Lym (6 h): 78% | MCH (6 h): 21.3 pg | MCHC (6 h): 32.8% | MCV (6 h): 64.9 fL | Mono (6 h): 6.4% | Neu (6 h): 15.2% | PT (6 h): 12.1 s | Plat (6 h): 118.2 x10_4/uL | RBC (6 h): 614.6 x10_4/ul | Ret (6 h): 8.5% | WBC (6 h): 114.2 x10_2/uL | KIDNEY_TOTAL (6 h): 0.7 g | LIVER (6 h): 8.7 g | A/G (6 h): 2.5 | ALP (6 h): 1335.2 IU/L | ALT (6 h): 37 IU/L | AST (6 h): 73 IU/L | BUN (6 h): 9.2 mg/dL | CRE (6 h): 0.4 mg/dL | Ca (6 h): 11.1 mg/dL | Cl (6 h): 103.6 meq/L | DBIL (6 h): 0.014 mg/dL | GLC (6 h): 184.6 mg/dL | IP (6 h): 9.6 mg/dL | K (6 h): 4.3 meq/L | LDH (6 h): 72.8 IU/L | Na (6 h): 138.2 meq/L | PL (6 h): 135.2 mg/dL | RALB (6 h): 3.7 g/dL | TBIL (6 h): 0.048 mg/dL | TC (6 h): 82.4 mg/dL | TG (6 h): 73.8 mg/dL | TP (6 h): 5.2 g/dL | gamma-GTP (6 h): 0.8 IU/L | TERMINAL_BW (9 h): 198.4 g | APTT (9 h): 16.5 s | Bas (9 h): 0% | Eos (9 h): 1% | Fbg (9 h): 219 mg/dL | Hb (9 h): 12.7 g/dL | Ht (9 h): 38.2% | Lym (9 h): 73% | MCH (9 h): 21.7 pg | MCHC (9 h): 33.3% | MCV (9 h): 65.1 fL | Mono (9 h): 6% | Neu (9 h): 20.4% | PT (9 h): 12.2 s | Plat (9 h): 118 x10_4/uL | RBC (9 h): 586.6 x10_4/ul | Ret (9 h): 9% | WBC (9 h): 90.8 x10_2/uL | KIDNEY_TOTAL (9 h): 0.7 g | LIVER (9 h): 8.5 g | A/G (9 h): 2.4 | ALP (9 h): 1181.6 IU/L | ALT (9 h): 35.2 IU/L | AST (9 h): 64.4 IU/L | BUN (9 h): 12.2 mg/dL | CRE (9 h): 0.3 mg/dL | Ca (9 h): 11 mg/dL | Cl (9 h): 104.6 meq/L | DBIL (9 h): 0.01 mg/dL | GLC (9 h): 192.4 mg/dL | IP (9 h): 10.3 mg/dL | K (9 h): 4.2 meq/L | LDH (9 h): 80.6 IU/L | Na (9 h): 140 meq/L | PL (9 h): 130.6 mg/dL | RALB (9 h): 3.8 g/dL | TBIL (9 h): 0.044 mg/dL | TC (9 h): 78.4 mg/dL | TG (9 h): 57.6 mg/dL | TP (9 h): 5.3 g/dL | gamma-GTP (9 h): 0.8 IU/L | TERMINAL_BW (24 h): 217.5 g | APTT (24 h): 15.7 s | Bas (24 h): 0% | Eos (24 h): 1% | Fbg (24 h): 232 mg/dL | Hb (24 h): 12.8 g/dL | Ht (24 h): 39% | Lym (24 h): 74.2% | MCH (24 h): 21.3 pg | MCHC (24 h): 32.9% | MCV (24 h): 64.8 fL | Mono (24 h): 8% | Neu (24 h): 17% | PT (24 h): 11.4 s | Plat (24 h): 119.2 x10_4/uL | RBC (24 h): 602.6 x10_4/ul | Ret (24 h): 7.1% | WBC (24 h): 95 x10_2/uL | KIDNEY_TOTAL (24 h): 0.7 g | LIVER (24 h): 11.3 g | A/G (24 h): 2.4 | ALP (24 h): 1603.4 IU/L | ALT (24 h): 34.2 IU/L | AST (24 h): 66.2 IU/L | BUN (24 h): 16 mg/dL | CRE (24 h): 0.4 mg/dL | Ca (24 h): 11.3 mg/dL | Cl (24 h): 104.2 meq/L | DBIL (24 h): 0.014 mg/dL | GLC (24 h): 190.2 mg/dL | IP (24 h): 7.7 mg/dL | K (24 h): 4.3 meq/L | LDH (24 h): 102 IU/L | Na (24 h): 141 meq/L | PL (24 h): 153.4 mg/dL | RALB (24 h): 3.9 g/dL | TBIL (24 h): 0.034 mg/dL | TC (24 h): 87.4 mg/dL | TG (24 h): 128.2 mg/dL | TP (24 h): 5.5 g/dL | gamma-GTP (24 h): 1 IU/L
